These results are taken from patent US20250320246A1, “3-AZASTEROID COMPOUNDS FOR THE TREATMENT OF DISEASES RELATED TO MITROCHONDRIAL FUNCTION” (NZP UK LIMITED, priority 2022, published 2025).

The test system of the test is sporadic PD patient fibroblasts. Kind of test: Cellular ATP levels in sporadic PD patient fibroblasts, Preliminary ATP assay. It counts as cell-based, human. Conditions: for activity at 0.1 µM / activity at 1 µM: Homo sapiens, Fibroblast; for activity at 0.1 µM: read-out: Average ATP Response 100 nM; for activity at 1 µM: read-out: Average ATP Response 1 μM. The method, then: In some cases, a preliminary ATP protocol was used in which EC50 was not determined. The preliminary ATP protocol is generally as described in Mortiboys et al 2008. Briefly, fibroblasts were cultured and plated into white, clear-bottom 384 well plates at a concentration of 4000 cells per well in 50 μl of media volume. The plates are left overnight in an incubator to allow the fibroblasts to adhere to the plate surface. The following morning the Glucose based medium is replaced with 25 μl of Galactose based medium. The cells were then dosed with 100 nM and 1 μM concentrations of the compounds using a ECHO 550 liquid handling system. After dosing the wells are topped up with a further 25 μl of Galactose based medium and then left in an incubator for 24 hours. Following this incubation, the medium is removed from the plate and the wells are washed twice with sterile PBS. The wells are filled with 20 μl of Sterile PBS followed by 10 μl of Lysis solution from the ATPlite™ Luminescence ATP detection assay system (Perkin Elmer), including 14 cell free wells to use as blank controls. The plate is then placed on a rotary shaker for 10 mins at 700 rpm. Following the shaking 10 μl of ATP substrate solution (Perkin Elmer) is added to each well and a further 5 min of shaking. The plate is then incubated in the dark for 10 minutes prior to reading. Using a FLUOstar® Omega plate reader, luminescence intensity is recorded. Following the ATP assay the plates are immediately assayed for DNA content in a CyQUANT® assay.
Immediately following The ATP assay DNA content is assessed with the CyQUANT® NF Cell Proliferation Assay Kit (ThermoFisher). CyQUANT® buffer is prepared immediately before the assay and is comprised of 2 μl CyQUANT® dye per ml×1 HBSS solution. 10 μl of CyQUANT® buffer is added to each well. Cell plates were then incubated for 1 hour before being read on a FLUOStar® Plate reader with excitation at 497 nm and emission at 520 nm.
The ATP Quantification for each well is determined as set out above.

Where [1] appears, read: 100 nM, 24 h, % of vehicle treated sPD fibroblasts, 3 sporadic PD patients.
[2] abbreviates: 1 μM, 24 h, % of vehicle treated sPD fibroblasts, 3 sporadic PD patients.

For the compound `CC(CC(=O)O)NC(=O)CCC[C@@H](C)[C@H]1CC[C@H]2[C@@H]3[C@@H](O)C[C@@H]4CNCC[C@]4(C)[C@H]3CC[C@]12C` (stereo partly drawn) [Compound 74b, N-(3-Aza-7β-hydroxy-25-homo-5β-cholan-25-oyl)-3-aminobutanoic acid], the activity at 0.1 µM under setting [1] turned out to be 103%. The activity at 1 µM under setting [2] stood at 98.5%.

With `CC(C)C[C@H](NC(=O)CCC[C@@H](C)[C@H]1CC[C@H]2[C@@H]3[C@@H](O)C[C@@H]4CNCC[C@]4(C)[C@H]3CC[C@]12C)C(=O)O` [Compound 75b, N-(3-Aza-7β-hydroxy-25-homo-5β-cholan-25-oyl)-(S)-2-amino-4-methylpentanoic acid], the activity at 0.1 µM under setting [1] was found to be 112%. Under setting [2], the activity at 1 µM is 106%.

For the compound `C[C@H](CCCC(=O)NCCCC[C@H](N)C(=O)O)[C@H]1CC[C@H]2[C@@H]3[C@@H](O)C[C@@H]4CNCC[C@]4(C)[C@H]3CC[C@]12C` [Compound 76b, N-(3-Aza-7β-hydroxy-25-homo-5β-cholan-25-oyl)-(2S)-2,6-diaminohexanoic acid], the activity at 0.1 µM under setting [1] is 105%. For the same compound, under setting [2], the activity at 1 µM was 106%.

`C[C@H](CCCC(=O)N[C@@H](Cc1ccc(O)cc1)C(=O)O)[C@H]1CC[C@H]2[C@@H]3[C@@H](O)C[C@@H]4CNCC[C@]4(C)[C@H]3CC[C@]12C` [Compound 77b, N-(3-Aza-7β-hydroxy-25-homo-5β-cholan-25-oyl)-(2S)-2-amino-3-(4-hydroxyphenyl)propanoic acid]: the activity at 0.1 µM under setting [1] was determined as 109%. Moreover, the activity at 1 µM under setting [2] was determined as 113%.

As to `C[C@H](CCC(=O)N1CC2(COC2)C1)[C@H]1CC[C@H]2[C@@H]3[C@@H](O)C[C@@H]4CN(C(=O)OCc5ccccc5)CC[C@]4(C)[C@H]3CC[C@]12C` [Compound 78a, N-{(benzyloxycarbonyl)-3-aza-7β-hydroxy-5β-cholan-24-oyl}-2-oxa-6-azospiro{3,3}heptane], the activity at 0.1 µM under setting [1] was 121%. Under setting [2], the activity at 1 µM came to 120%.

In the case of `C[C@H](CCC(=O)N1CCC(=O)CC1)[C@H]1CC[C@H]2[C@@H]3[C@@H](O)C[C@@H]4CN(C(=O)OCc5ccccc5)CC[C@]4(C)[C@H]3CC[C@]12C` [Compound 79a, N-{(benzyloxycarbonyl)-3-aza-7β-hydroxy-5β-cholan-24-oyl}-4-piperidone], the activity at 0.1 µM under setting [1] was found to be 116%. The activity at 1 µM under setting [2] stood at 122%.

Turning to `C[C@H](CCCC(=O)NC1CCOC1)[C@H]1CC[C@H]2[C@@H]3[C@@H](O)C[C@@H]4CN(C(=O)OCc5ccccc5)CC[C@]4(C)[C@H]3CC[C@]12C` (stereo partly drawn) [Compound 80b, N-{(benzyloxycarbonyl)-3-aza-7β-hydroxy-25-homo-5β-cholan-25-oyl}-3-aminotetrahydrofuran], the activity at 0.1 µM under setting [1] turned out to be 122%. Also, the activity at 1 µM under setting [2] is 120%.

On to `C[C@H](CCC(=O)N1Cc2ccccc2C1)[C@H]1CC[C@H]2[C@@H]3[C@@H](O)C[C@@H]4CNCC[C@]4(C)[C@H]3CC[C@]12C` [Compound 81a], for which the activity at 0.1 µM under setting [1] worked out at 94.2%. Further, under setting [2], the activity at 1 µM was found to be 102%.

For `C[C@H](CCCC(=O)NC1CCOC1)[C@H]1CC[C@H]2[C@@H]3[C@@H](O)C[C@@H]4CNCC[C@]4(C)[C@H]3CC[C@]12C` (stereo partly drawn) [Compound 82b, N-{(3-aza-7β-hydroxy-25-homo-5β-cholan-25-oyl)}-3-aminotetrahydrofuran], under setting [1], the activity at 0.1 µM was 96.2%. In addition, the activity at 1 µM under setting [2] is 97.5%.

“S-(3-Aza-7β-hydroxy-5β-cholan-24-oyl)-phenylmethanethiol [Compound 64a]”: for the setting “100 nM”, the “ATP production relative to control levels” value is given as “returning ATP production to control levels”. Moreover, the “Average ATP Response 100 nM” value under setting [1] is given as 118.2%. Besides, the “Average ATP Response 1 μM” value under setting [2] worked out at 111.4%.
